Literature values in publication PMC4008333 (Cancer chemotherapy and pharmacology, 2012).
Starred links: 1 amine or outer side, 2 acyl side, 3 side chain; linkers in the order of their positions; H or OH if unused. Positions of bridges follow the written chain, without caps; N, C: chain ends. Non-standard residues stand in square brackets, D forms with d. Residues, ends and D or L forms follow the SMILES beside them. Chains are numbered I, II in the order given. Actinocin(9to1) = Cc1c2oc3c(C)ccc(C(=O)[*:1])c3nc-2c(C(=O)[*:2])c(N)c1=O; NMeV = CN[C@H](C(=O)O)C(C)C; Sar = CNCC(=O)O

Details: historical model; point estimate (% RSE)

Q: For `Cc1c2oc3c(C)ccc(C(=O)N[C@@H]4C(=O)N[C@H](C(C)C)C(=O)N5CCC[C@H]5C(=O)N(C)CC(=O)N(C)[C@@H](C(C)C)C(=O)O[C@@H]4C)c3nc-2c(C(=O)N[C@@H]2C(=O)N[C@H](C(C)C)C(=O)N3CCC[C@H]3C(=O)N(C)CC(=O)N(C)[C@@H](C(C)C)C(=O)O[C@@H]2C)c(N)c1=O` [AMD, actinomycin-D] (I: T[dV]P[Sar][NMeV] / II: T[dV]P[Sar][NMeV]; ester I:1-I:C, II:1-II:C; linker I:N-II:N via Actinocin(9to1)), which Q2 is on record?
A: Its Q2 is 11.4 (58.8) L/h/70 kg.

Q: What about the Q3 of the same compound?
A: The Q3 was 25.2 (23.3) L/h/70 kg.

Q: And the V1?
A: Its V1 is 3.56 (39.3) L/70 kg.

Q: What about the V2 of the same compound?
A: The V2 was 16.1 (80.7) L/70 kg.

Q: What about the V3 of the same compound?
A: The V3 was 367 (19.7) L/70 kg.
